In patent publication US9758557B2, “C1q peptides and uses thereof” (THE FEINSTEIN INSTITUTE FOR MEDICAL RESEARCH, priority 2013, dated 2017):

Legend:
R4A binding to dsDNA = assay: DNA ELISA, inhibition of R4A binding to dsDNA by fluid phase C1q; details: immobilized dsDNA
Experimental: (§1) ELISAs—Costar half-volume 96-well plates (Corning, N.Y.) were used for C1q ELISAs and Immulon 2HB 96-well plates (Milford, Mass.) were used for DNA ELISAs. C1q was purchased from Comptech (Tyler, Tex.) and adsorbed to 96-well plate (50 μg/ml) Plates were blocked with 2% BSA in PBS for 1 hour at RT. R4A antibody or IgG2b control immunoglobulin (MPC-11 hybridoma, ATCC, Manassas, Va.) was added for 1 hour at RT at various concentrations of NaCl. Cytokine ELISA was performed according to manufacturer's protocol (BD Biosciences, San Diego, Calif.). C1q collagen-tail of C1q was prepared as described in [21].

R4A binding to C1q = assay: ELISA, inhibition of R4A binding to C1q by peptide
Experimental: as §1

In the case of “C1q: human complement C1q, purchased from Comptech”, the “inhibition of R4A binding to dsDNA” value (R4A binding to dsDNA) is reported as “inhibited”.

DWEYS [reference compound] was tested, and the “inhibition of R4A binding to C1q” value (R4A binding to C1q) was “inhibited”.

With EADYG (fusion protein) the “inhibition of R4A binding to C1q” value (R4A binding to C1q) was “inhibited”.
